# Laboratory results taken from patent publication US20040106172A1, “Hydrolyzing/dehydration condensing enzymes, method for producing the enzyme and method for synthesizing amide by using the enzyme” (Okayama University, priority 2002, published 2004).
# Where two headings read alike, the source gives them in different places.
# Assays:
# [1] = test system: Penicillin Vacylase originated from Streptomyces lavendulae; details: cited from earlier work; for Activity kcat: substrate of Streptomyces lavendulae Penicillin V acylase, Torres-Guzman et al. 2002
# [2] = test system: Streptomyces mobaraensis (enzyme according to the invention); experiment: Hydrolysis of antibiotic substances having an amide bond by the enzyme of the invention; format: biochemical; details: for hydrolyzing activity for the substrate: 10 mM antibiotic, pH 7.5, 37° C., 2 minutes, 0.1 mM CoCl2, 1 Unit = 1 μmol substrate hydrolyzed in 1 hour; for Activity kcat (approximate value): substrate of the enzyme according to the invention
# Description: The enzyme is examined on the hydrolysis of an antibiotic substance having an amide bond. As the antibiotic substance are used Penicillin G, Penicillin V and Ampicillin, respectively. The reaction is carried out at 37° C. for 2 minutes by using 20 μg of the enzyme in 0.1 ml of 50 mM tris-hydrochloric acid buffer solution containing 0.1 mM of CoCl2 as a solvent (pH: 7.5) under a condition that a final concentration of the antibiotic substance is 10 mM.
# As a result, if the hydrolyzing activity for capsaicin at pH of 7.5 is 200 U/mg (Unit is defined as an amount of the enzyme required for hydrolyzing 1 μmol of the substrate at 37° C. for 1 hour), the activities for Penicillin G, Penicillin V and Ampicillin are 2200 U, 6000 U and 1000 U, respectively.
# In order to show the utility of the enzyme according to the invention, it is compared with the existing Penicillin Vacylase originated from Streptomyces lavendulae (Raquel Torres-Guzman et al., Biochemical and Biophysical Research Communications, Vol. 291, 593-0597 (2002)) (compared with activity kcat (1/s)).
# [3] = test system: purified enzyme (capsaicin hydrolysis activity); experiment: Effects of various reagents upon enzymatic activity (capsaicin hydrolysis); format: biochemical, Streptomyces mobaraensis IFO 13819
# [4] = test system: Streptomyces mobaraensis (enzyme according to the invention); experiment: Hydrolysis of N-benzyloxycarbonyl-L-amino acids by the enzyme of the invention; format: biochemical
# Description: An ability of hydrolyzing/dehydration condensing by the enzyme according to the invention is examined by using N-benzyloxycarbonyl-L-amino acid (Z-L-amino acid) as an amide. The reaction is performed by using […] of the enzyme in 0.2 ml of 50 mM tris-hydrochloric acid buffer solution containing 0.1 mM of CoCl2 as a solvent (pH: 7.5) under a condition that a final concentration of N-benzyloxycarbonyl-L-amino acid is 10 mM at 37° C. for 30 minutes (Z-L-Phe and Z-L-Tyr) or 1 hour (the other Z-L-amino acids).
# [5] = test system: Urethane hydrolase IV (strain F-86); details: cited from earlier work
# [6] = test system: Capsaicin hydrolyzing/dehydration condensing enzyme of the invention; details: fatty acid as substrate with vanillylamine; water/n-hexane two-phase system, 37° C.; HPLC of hexane phase
# Description: (§1) The reaction temperature is 37° C.
# (§2) As a comparative example, aminoacylase is used. The resulting capsaicin analog is quantitatively measured by HPLC analysis of the hexane phase.
# [7] = test system: Aminoacylase; experiment: Synthesis of capsaicin analogs from vanillylamine and fatty acids, comparative aminoacylase; format: biochemical; details: comparative example; fatty acid as substrate with vanillylamine; water/n-hexane two-phase system, 37° C.; HPLC of hexane phase
# Description: as §1, §2
# [8] = pH dependency, heat stability and temperature dependency of the purified enzyme; format: physicochemical, Streptomyces mobaraensis IFO 13819
# [9] = reagent 1 mM, 0.13 mM capsaicin/50 mM tris-HCl (pH 7.5), control = 100
# [10] = 10 mM Z-L-amino acid, pH 7.5, 37° C., 0.1 mM CoCl2
Compound,"Relative activity [3, 9] [%]","Activity for the substrate [4, 10] [Unit/mg]",Activity for the substrate ([5]; Matsumura et al. 1985) [Unit/mg],other results
CC1(C)S[C@@H]2[C@H](NC(=O)[C@H](N)c3ccccc3)C(=O)N2[C@H]1C(=O)O [Ampicillin],–,–,–,Activity for the substrate [1]: hardly an activity; Activity kcat [1]: 0 s⁻¹; Activity for the substrate [2]: excellent activity; hydrolyzing activity for the substrate [2]: 1000 U; Activity kcat (approximate value) [2]: >17 s⁻¹
[Ca+2].[Cl-].[Cl-] [CaCl2],101.6,–,–,–
CC1(C)S[C@@H]2[C@H](NC(=O)Cc3ccccc3)C(=O)N2[C@H]1C(=O)O [Penicillin G],–,–,–,Activity for the substrate [1]: hardly an activity; Activity kcat [1]: 3.4 s⁻¹; Activity for the substrate [2]: excellent activity; hydrolyzing activity for the substrate [2]: 2200 U; Activity kcat (approximate value) [2]: >50 s⁻¹
CC1(C)S[C@@H]2[C@H](NC(=O)COc3ccccc3)C(=O)N2[C@H]1C(=O)O [Penicillin V],–,–,–,Activity kcat [1]: 60.25 s⁻¹; hydrolyzing activity for the substrate [2]: 6000 U; Activity kcat (approximate value) [2]: >80 s⁻¹
C[C@H](NC(=O)OCc1ccccc1)C(=O)O [Z-Ala],–,29,228,–
CCCCCCCCCCCC(=O)O [Lauric acid],–,–,–,Synthesis of capsaicin analogs [6]: 1.25 mM; Synthesis of capsaicin analogs [7]: 0.051 mM
NC(=O)C[C@H](NC(=O)OCc1ccccc1)C(=O)O [Z-Asn],–,12,138,–
O=C(NC(CSCc1ccccc1)C(=O)O)OCc1ccccc1 (stereo not shown) [Cys(Bzl)],–,250,228,–
O=C(O)C[C@H](NC(=O)OCc1ccccc1)C(=O)O [Z-Asp],–,–,360,–
O=C(NC(Cc1cnc[nH]1)C(=O)O)OCc1ccccc1 (stereo not shown) [Z-His],–,36,18,–
O=C(O)CC[C@H](NC(=O)OCc1ccccc1)C(=O)O [Z-Glu],–,12,246,–
NC(=O)CI [Idoacetoamide],86.5,–,–,–
O=C(N[C@@H](CO)C(=O)O)OCc1ccccc1 [Z-Ser],–,0,18,–
O=S(=O)([O-])[O-].[Fe+2] [FeSO4],88.8,–,–,–
O=C(N[C@@H](Cc1ccc(O)cc1)C(=O)O)OCc1ccccc1 [Z-Tyr],–,650,0,Activity for the substrate [4]: high activity; Activity for the substrate [5]: lower activity
O=S(=O)([O-])[O-].[Mg+2] [MgSO4],96.0,–,–,–
O=[N+]([O-])[O-].[Ag+] [AgNO3],100.1,–,–,–
O=C(O)CN(CCN(CC(=O)O)CC(=O)O)CC(=O)O [EDTA],–,–,–,Relative activity ([3]; pH 7.5): 85.5%
[Cl-].[Cl-].[Co+2] [CoCl2],–,–,–,effect on capsaicin hydrolysis activity of the purified enzyme [3]: enhanced; Relative activity ([3]; pH 7.5): 145.5%; residual activity with added cobalt ion vs no cobalt ion [8]: higher
O[C@@H](CS)[C@@H](O)CS [DTT],79.8,–,–,–

Compound,"Relative activity [3, 9] [%]","Activity for the substrate [4, 10] [Unit/mg]",Activity for the substrate ([5]; Matsumura et al. 1985) [Unit/mg],other results
OCCS [β-mercaptoethanol],–,–,–,"Relative activity ([3]; reagent 10 mM, 0.13 mM capsaicin/50 mM tris-HCl (pH 7.5), control = 100): 79.3%"
CC(C)C(NC(=O)OCc1ccccc1)C(=O)O (stereo not shown) [Z-Val],–,43,84,–
[Cl-].[Cl-].[Zn+2] [ZnCl2],95.5,–,–,–
NC(=O)CC[C@H](NC(=O)OCc1ccccc1)C(=O)O [Z-Gln],–,27,144,–
C[C@@H](O)[C@H](NC(=O)OCc1ccccc1)C(=O)O [Z-Thr],–,4.5,162,–
CCCCCCCCCCCCCC(=O)O [Myristic acid],–,–,–,Synthesis of capsaicin analogs [6]: 0.24 mM
N[C@@H](CCC(=O)N[C@@H](CS)C(=O)NCC(=O)O)C(=O)O [GSH],99.8,–,–,–
CC(C)C[C@H](NC(=O)OCc1ccccc1)C(=O)O [Z-Leu],–,100,1668,–
CSCCC(NC(=O)OCc1ccccc1)C(=O)O (stereo not shown) [Z-Met],–,85,294,–
N=C(N)NCCC[C@H](NC(=O)OCc1ccccc1)C(=O)O [Z-Arg],–,37,0,–
COc1cc(CNC(=O)CCCC/C=C/C(C)C)ccc1O [capsaicin],–,–,–,"hydrolyzing activity for capsaicin ([2]; pH 7.5, reference value for the antibiotic activities): 200 U/mg"
O=C(O)CNC(=O)OCc1ccccc1 [Z-Gly],–,0,108,–
NCCCC[C@H](NC(=O)OCc1ccccc1)C(=O)O [Z-Lys],–,38,0,–
O=C(N[C@@H](Cc1ccccc1)C(=O)O)OCc1ccccc1 [Z-Phe],–,470,54,Activity for the substrate [4]: high activity; Activity for the substrate [5]: lower activity
(NH4)6Mo7O24,88.7,–,–,–
O=C(O)c1cc[c]([Hg][Cl])cc1 [PCMB],96.6,–,–,–
N[C@@H](CS)C(=O)O [L-Cys],101.2,–,–,–
O=S(=O)([O-])[O-].[Cu+2] [CuSO4],96.9,–,–,–
CCC(C)C(NC(=O)OCc1ccccc1)C(=O)O (stereo not shown) [Z-Ile],–,28,18,–
